# Results published in patent publication US6462055B2, “Alpha-methylbenzyl-containing thiourea inhibitors of herpes viruses containing a phenylenediamine group” (Wyeth, priority 1998, dated 2002).
# Key:
# [1] = test system: HCMV recombinant mutant virus (RV145); test: microbe, parasite or virus in culture; type: cell-based, human cytomegalovirus; settings: for IC50: Human betaherpesvirus 5, read-out: IC50 ug/ml HCMV, HCMV
# How it was run: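 Human foreskin fibroblasts infected with HCMV RV145 carrying a viral-promoter-driven beta-glucuronidase gene, in presence of compound. At 96 h post-infection, lysates assayed for beta-glucuronidase with colorimetric or fluorogenic glucuronide substrate as replication read-out. IC50 estimated from varying inhibitor amounts.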
# [2] = test system: HSV-1; test: HSV Antiviral (ELISA) Assay in Vero cells; type: cell-based, herpes simplex virus type 1; settings: HSV-1, Vero cells; for IC50: Human alphaherpesvirus 1, read-out: IC50 (ug/ml) HSV
# How it was run: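 Viral replication was quantified by cell-fixed ELISA for HSV glycoprotein D, using a β-galactosidase reporter and fluorogenic umbelliferyl substrate, about 24 h after HSV-1 infection (MOI 0.006) of Vero cells. Compounds, at several concentrations, were added 30 min pre-infection. IC50 was derived from fluorescence relative to the compound-free signal.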
# [3] = test system: VZV strain Ellen; test: VZV Antiviral (ELISA) Assay in human foreskin fibroblast cells; type: cell-based, varicella-zoster virus; settings: for inhibition at 10 µg/mL / IC50: Human alphaherpesvirus 3, Fibroblast; for inhibition at 10 µg/mL: read-out: % inhibition 10 ug/ml VZV, 10 ug/ml; for IC50: read-out: IC50 (ug/ml) VZV
# How it was run: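 HFF cells infected overnight with VZV Ellen at MOI <0.1, mixed with uninfected cells, were seeded with compound and grown 3 days at 37° C in DMEM/2% FBS. Viral glycoprotein II was detected by ELISA with β-galactosidase-linked secondary; IC50 from fluorescence versus no-compound wells.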
Compound,IC50 [1],IC50 [2],inhibition at 10 µg/mL [3],IC50 [3],IC50 ug/ml HCMV [1],IC50 (ug/ml) HSV [2],IC50 (ug/ml) VZV [3],% inhibition 10 ug/ml VZV [3]
"O=C(Nc1ccc(NC(=S)Nc2cccc(F)c2)cc1)c1ccccc1F [Example 962, 2-Fluoro-N-{4-[3-(3-fluoro-phenyl)-thioureido]-phenyl}-benzamide]",> 10 µg/mL,> 10 µg/mL,10%,> 10 µg/mL,,,,
COc1cc(OC)c(NC(=S)Nc2ccc(NC(=O)c3cccc(NC(C)=O)c3)cc2)cc1Cl [Example 134],,,,,4 µg/mL,> 10 µg/mL,>10 µg/mL,50%
CCCCSc1ccc(NC(=S)Nc2ccc(NC(=O)c3ccccc3F)cc2)cc1Cl [Example 387],,,,,>10 µg/mL,>10 µg/mL,>10 µg/mL,26%
"O=C(Nc1ccc(NC(=S)Nc2cccc([N+](=O)[O-])c2)cc1)c1ccccc1F [Example 959, 2-Fluoro-N-{4-[3-(3-nitro-phenyl)-thioureido]-phenyl}-benzamide]",> 10 µg/mL,0.7 µg/mL,33%,> 10 µg/mL,,,,
CCOC(=O)COc1cccc(C(=O)Nc2ccc(NC(=S)Nc3cc(Cl)c(OC)cc3OC)cc2)c1 [Example 221],,,,,>10 µg/mL,>10 µg/mL,>10 µg/mL,17%
COc1cccc(C(=O)Nc2ccc(NC(=S)Nc3ccc(N(C)C4CCCCC4)c(Cl)c3)cc2)c1 [Example 250],,,,,>10 µg/mL,>10 µg/mL,>10 µg/mL,42%
O=C(Nc1ccc(NC(=S)NCCc2cccc(Cl)c2)cc1)c1ccccc1F [Example 563],,,,,>0.5 µg/mL,>10 µg/mL,9 µg/mL,
"CC(NC(=S)Nc1ccc(C(=O)Nc2ccc(F)cc2)cc1)c1ccc(F)cc1 (stereo not shown) [Example 975, N-(4-Fluoro-phenyl)-4-{3-[1-(4-fluoro-phenyl)-ethyl]-thioureido}-benzamide]",> 10 µg/mL,> 10 µg/mL,,0.87 µg/mL,,,,
COc1cc(OC)c(NC(=S)Nc2ccc(NC(=O)c3cccc4ccccc34)cc2)cc1Cl [Example 157],,,,,8 µg/mL,0.9 µg/mL,>10 µg/mL,32%
O=C(Nc1ccc(NC(=S)NCCc2ccc(F)cc2)cc1)c1ccccc1F [Example 552],,,,,>0.5 µg/mL,>10 µg/mL,>10 µg/mL,
CN(c1ccc(NC(=S)Nc2ccc(NC(=O)c3c(F)cccc3F)cc2)cc1Cl)C1CCCCC1 [Example 248],,,,,2 µg/mL,>10 µg/mL,2 µg/mL,96%
CN(C)c1cc(CNC(=S)Nc2ccc(NC(=O)c3ccccc3F)cc2)cc(C(F)(F)F)c1 [Example 636],,,,,>10 µg/mL,>10 µg/mL,5 µg/mL,
N-{4-[3-(3-Chloro-4-methoxy-phenyl)-thioureido]-phenyl}-4-methoxy-benzamide [Example 821],,,,,1 µg/mL,0.15 µg/mL,>10 µg/mL,55%
COc1cc(OC)c(NC(=S)Nc2ccc(NC(=O)c3ccccc3[N+](=O)[O-])cc2)cc1Cl [Example 143],,,,,> 10 µg/mL,1 µg/mL,>15 µg/mL,68%
"CC(NC(=S)Nc1ccc(NC(=O)c2cc3ccccc3cn2)cc1)c1cc2ccccc2o1 (stereo not shown) [Example 985, Isoquinoline-3-carboxylic acid {4-[3-(1-benzofuran-2-yl-ethyl)-thioureido]-phenyl}-amide]",> 10 µg/mL,> 10 µg/mL,,0.035 µg/mL,,,,
